According to the NIST ThermoML archive (doi:10.1016/j.fluid.2013.09.036):
± gives the expanded uncertainty stated by the source.

Columns and labels:
[1] = 101.33 kPa, Liquid; for mass density: Vibrating tube method
[2] = xn = mol fraction of the nth substance listed; details: Liquid, Other PVT measurement

CCC[N+]1(C)CCCC1.O=S(=O)([N-]S(=O)(=O)C(F)(F)F)C(F)(F)F
[1]
Details | electrical conductivity [S/m] | mass density [kg/m3] | viscosity [mPa·s]
278.15 K | 0.158 ± 0.0063 | 1446.23 ± 1.6 | 169.4 ± 6.8
283.15 K | 0.206 ± 0.0082 | 1441.6 ± 1.6 | 127.2 ± 5.1
288.15 K | 0.262 ± 0.011 | 1437 ± 1.5 | 97.84 ± 4
293.15 K | 0.327 ± 0.013 | 1432.46 ± 1.5 | 76.89 ± 3.1
298.15 K | 0.4 ± 0.016 | 1427.91 ± 1.5 | 61.52 ± 2.5
303.15 K | 0.483 ± 0.019 | 1423.37 ± 1.5 | 49.99 ± 2
313.15 K | 0.675 ± 0.027 | 1414.36 ± 1.5 | 34.45 ± 1.4
323.15 K | 0.902 ± 0.036 | 1405.44 ± 1.5 | 24.91 ± 1
333.15 K | 1.16 ± 0.047 | 1396.6 ± 1.5 | 18.71 ± 0.75
343.15 K | 1.46 ± 0.058 | 1387.82 ± 1.5 | 14.51 ± 0.58
353.15 K | 1.78 ± 0.071 | 1379.12 ± 1.5 | 11.55 ± 0.47
363.15 K | – | 1370.48 ± 1.5 | 9.398 ± 0.38

CCC[N+]1(C)CCCC1.O=S(=O)([N-]S(=O)(=O)C(F)(F)F)C(F)(F)F + O=C=O
[2]
Details | molar volume [m3/mol]
298.15 K, 525.5 kPa, x2 = 0.134 | 0.0002522 ± 3e-06
298.15 K, 1123.1 kPa, x2 = 0.255 | 0.0002222 ± 2.7e-06
298.15 K, 1476.5 kPa, x2 = 0.316 | 0.0002071 ± 2.5e-06
298.15 K, 1913.1 kPa, x2 = 0.376 | 0.0001924 ± 2.3e-06
298.15 K, 2237.6 kPa, x2 = 0.418 | 0.000182 ± 2.2e-06
298.15 K, 2800.7 kPa, x2 = 0.478 | 0.0001674 ± 2e-06
298.15 K, 3281.6 kPa, x2 = 0.523 | 0.0001565 ± 1.9e-06
298.15 K, 3998.7 kPa, x2 = 0.578 | 0.0001431 ± 1.7e-06
298.15 K, 4567.3 kPa, x2 = 0.616 | 0.0001339 ± 1.6e-06
313.15 K, 567.7 kPa, x2 = 0.113 | 0.0002606 ± 3.1e-06
313.15 K, 1217.5 kPa, x2 = 0.218 | 0.0002344 ± 2.8e-06
313.15 K, 1606.5 kPa, x2 = 0.273 | 0.0002203 ± 2.6e-06
313.15 K, 2083.3 kPa, x2 = 0.327 | 0.000207 ± 2.5e-06
313.15 K, 2445 kPa, x2 = 0.369 | 0.0001966 ± 2.4e-06
313.15 K, 3072.7 kPa, x2 = 0.425 | 0.0001827 ± 2.2e-06
313.15 K, 3613.6 kPa, x2 = 0.468 | 0.0001718 ± 2.1e-06
313.15 K, 4415.1 kPa, x2 = 0.519 | 0.0001596 ± 1.9e-06
313.15 K, 5100.5 kPa, x2 = 0.561 | 0.000149 ± 1.8e-06
333.15 K, 618.4 kPa, x2 = 0.093 | 0.0002678 ± 3.2e-06
333.15 K, 1333.3 kPa, x2 = 0.18 | 0.0002455 ± 2.9e-06
333.15 K, 1767.4 kPa, x2 = 0.229 | 0.0002327 ± 2.8e-06
333.15 K, 2294.9 kPa, x2 = 0.275 | 0.0002214 ± 2.7e-06
333.15 K, 2702.9 kPa, x2 = 0.316 | 0.0002107 ± 2.5e-06
333.15 K, 3411.9 kPa, x2 = 0.368 | 0.0001978 ± 2.4e-06
333.15 K, 4029.9 kPa, x2 = 0.409 | 0.0001874 ± 2.3e-06
333.15 K, 4942.5 kPa, x2 = 0.455 | 0.0001767 ± 2.1e-06
333.15 K, 5777.2 kPa, x2 = 0.501 | 0.000165 ± 2e-06
